Assay results from patent publication US9937104B2, “Nanostructured antibacterial and remineralizing dental bonding agents and dental bonding systems” (UNIVERSITY OF MARYLAND, BALTIMORE, priority 2012, dated 2018).
Entries after “also recorded” stand apart in the source; their conditions may differ.

What was measured:
[1] = system: S. mutans (ATCC 700610, UA159); assay: MIC and MBC by serial microdilution; format: cell-based, Streptococcus mutans; details: for MIC and MBC relative to QADM: compared with QADM
Description: MIC and MBC were measured using S. mutans (ATCC 700610, UA159, American Type Culture, Manassas, Va.). S. mutans is a cariogenic, aerotolerant anaerobic bacterium and the primary causative agent of dental caries (Loesche 1986). MIC and MBC were determined via serial microdilution assays (Imazato S et al. 2006; Huang L et al. 2011). Unpolymerized DMAHM or DMADM monomer was dissolved in brain heart infusion (BHI) broth (BD, Franklin Lakes, N.J.) to give a final concentration of 200 mg/mL. From these starting solutions, serial two fold dilutions were made into 1 mL volumes of BHI broth. 15 μL of stock S. mutans was added to 15 mL of BHI broth with 0.2% sucrose and incubated at 37° C. with 5% CO2. Overnight cultures of S. mutans were adjusted to 2×10^6 CFU/mL with BHI broth, and 50 μL of inocula was added to each well of a 96-well plate containing 50 μL of a series of antibacterial monomer dilution broths. BHI broth with 1×10^6 CFU/mL bacteria suspension without antibacterial agent served as negative control. Chlorhexidine diacetate (CHX) (Sigma, St. Louis, Mo.) served as positive control. The previously-synthesized QADM (Antonucci J M et al. 2012; Cheng L et al. 2012a) served as an antibacterial monomer control. After incubation at 37° C. in 5% CO2 for 48 h, the wells were read for turbidity, referenced by the negative and positive control wells. MIC was determined as the endpoint (the well with the lowest antibacterial agent concentration) where no turbidity could be detected with respect to the controls (Huang L et al. 2011). To determine MBC, an aliquot of 50 μL from each well without turbidity was inoculated on BHI agar plates and incubated at 37° C. in 5% CO2 for 48 h. MBC was determined as the lowest concentration of antibacterial agent that produced no colonies on the plate. The tests were performed in triplicate (Huang L et al. 2011).
The use of S. mutans (ATCC 700610, American Type Culture, Manassas, Va.) was approved by the University of Maryland. S. mutans is a cariogenic, aerotolerant anaerobic bacterium and the primary causative agent of dental caries (Deng et al. 2004). MIC and MBC were determined via serial microdilution assays (Imazato et al. 2006; Huang et al. 2011). Unpolymerized DMAHM or DMADDM monomer was dissolved in brain heart infusion (BHI) broth (BD, Franklin Lakes, N.J.) to a concentration of 200 mg/mL. From these starting solutions, serial two fold dilutions were made into 1 mL volumes of BHI broth. […] The wells were read for turbidity after incubation at 37° C. in 5% CO2 for 48 h, referenced by the negative and positive control wells. MIC was defined as the endpoint (the well with the lowest antibacterial agent concentration) where no turbidity could be detected with respect to the controls (Huang et al. 2011). […]

[2] = system: Human gingival fibroblasts (HGF); format: cell-based; details: MTT
Description: Human gingival fibroblasts (HGF, ScienCell) were cultured in a fibroblast medium (FM). […] Then, HGF were seeded in 96-well plates at 5,000 cells per well. […] After 4 h, the unreacted dye was removed and 150 μL of dimethyl sulfoxide was added. Absorbance was measured via the microplate reader at 492 nm. […] Cells were also live/dead stained (Molecular Probes) and examined with fluorescence microscopy (TE2000-S, Nikon) as shown in FIG. 15B.

[3] = system: mature biofilms (48 hours); assay: Mature biofilm (48 hours) CFU, antibacterial monomers in primer and adhesive; format: cell-based; details: 10% mass fraction in primer and adhesive (P&A control)
Description: FIG. 29. Effect of antibacterial monomers from Table 1, with chain length (CL) of 3, 6, 9, 12, 16 and 18, on mature biofilms (48 hours). Each monomer was mixed into the primer and adhesive control (P&A control) at 10% mass fraction (mean+−sd; n=6). […] CL=16 reduced the biofilm CFU by 4 orders of magnitude, compared to control.
FIG. 31. Effect of mass fraction of the antibacterial monomer DMAHDM (with chain length of 16) on mature biofilms (48 hours) (mean+−sd; n=6). […] DMAHDM at 10% mass fraction reduced the biofilm CFU by nearly 4 orders of magnitude, compared to control.

Row | Structure (SMILES) | MIC and MBC relative to those of DMAHM ([1]; S. mutans, compared with DMAHM) | MIC and MBC relative to QADM ([1]; S. mutans) | Cytotoxicity compared with BisGMA [2] | MBC and MIC potency relative to chain length 12 ([1]; compared with chain length 12 monomer) | Reduction of mature biofilm CFU compared to control [3]
1 | C=C(C)C(=O)OCC[N+](C)(C)CCCCCCCCCCCC.[Br-] [DMADDM, dimethylamino dodecyl methacrylate] | more than two orders of magnitude lower; also recorded: three orders of magnitude lower | four orders of magnitude lower | less cytotoxic |  | 
2 | C=C(C)C(=O)OCC[N+](C)(C)CCCCCCCCCCCCCCCC.[Br-] [DMAHDM, dimethylamino hexadecyl methacrylate] |  |  |  | an order of magnitude more potent | 4 orders of magnitude
3 | C=C(C)C(=O)OCC[N+](C)(C)CCCCCC.[Br-] [DMAHM] |  | a lower concentration, by an order of magnitude |  |  | 
4 | C=C(C)C(=O)OCCCCCCCCCCCC[n+]1ccccc1.[Br-] [MDPB, reference compound] |  |  | less cytotoxic |  | 
